Two compounds from patent US8197864B2, “Preparation, process and a regenerative method and technique for prevention, treatment and glycemic control of diabetes mellitus” (Arjuna Natural Extracts, priority 2004, dated 2012) can be followed below.

Molecules are shown by their SMILES.

For the assay, the system named is normal rats. The assay is described as follows: Hypoglycemic activity of fractions on blood sugar level in fasted normal rats. It is filed as in vivo, Sprague dawley rats. The following applies: glybenclamide 1 mg/kg, metformin 150 mg/kg; for blood sugar level, 1 hr: 1 hr after single oral dose: fractions 100 mg/kg; for blood sugar level, 3 hr: 3 hr after single oral dose: fractions 100 mg/kg; for blood sugar level, 5 hr: 5 hr after single oral dose: fractions 100 mg/kg; for blood sugar level, Fasting: fasting value before administration, single oral dose: fractions 100 mg/kg; for effect on blood glucose level (in words): single oral dose after 4 hours of fasting: fractions 100 mg/kg. As for the experimental part:
Activity of different extracts were tested using Sprague dawley rats of either sex aged 3 months weighing 180-200 g. After 3-4 hrs of fasting the rats were divided into 7 groups of 6 in each, one group kept as control and 4 groups were given different fractions (Fraction I, Fraction III, Fraction IV and Fraction V) of extract in the dose of 100 mg/kg. Sixth and seventh groups were given standard drugs glybenclamide (1 mg/kg) and metformin (150 mg/kg) respectively.
(See Table II, graph I) The extract/drug was administered orally (single dose) after 4 hours of fasting. […] In FIG. 2, the graph provides blood glucose level in normal rats in mg/dl measured over a duration of 5 hours. The normal rats were fed with different fractions of the extract after four hours of fasting.

As to `COc1ccc(Cl)cc1C(=O)NCCc1ccc(S(=O)(=O)NC(=O)NC2CCCCC2)cc1` [Glybenclamide, glybenclamide], the “blood sugar level, 1 hr” value was “*58.8 ± 9.8 mg/dl”; the “blood sugar level, 3 hr” value was “*43.3 ± 8.2 mg/dl”; the “blood sugar level, 5 hr” value was “*43.2 ± 5.8 mg/dl”; the “blood sugar level, Fasting” value is 72.6 ± 8.6 mg/dL. The “effect on blood glucose level (in words)” value is recorded as “significant (p<0.05) decrease in blood glucose level in the first hour”.
Taken in the same sequence, the figures for `CN(C)C(=N)N=C(N)N` [Metformin, metformin] were 70.6 ± 3.0 mg/dL, 68.3 ± 2.6 mg/dL, “*61.5 ± 3.0 mg/dl”, 76.6 ± 4.1 mg/dL and “significant (p<0.05) decrease in blood glucose level in the fifth hour”.
